Measurements from ChEMBL document CHEMBL5724914, “Linking interpersonal differences in gut microbiota composition and drug biotransformation activity” (2024).

Experiment: (§1) The drug is tested on Z-025 corresponding to rabbit gut metagenome with ENA study accession number: PRJEB37062 and ENA sample accession number: ERS12561824 for biotransformation under anaerobic condition. The drug concentrations were measured over 9 timepoints collected between 0 and 24 hours of incubation by liquid-chromatography-coupled mass spectrometry (LC–MS)
Conditions: 2 µM
Note: call rule not given here.

Compound | Bacterial Biotransformation
O=C(Nc1ccccc1)OCC(CN1CCCCC1)OC(=O)Nc1ccccc1 (stereo not given) [DIPERODON] | Compound metabolized
C[C@@H](CO)NC(=O)[C@@H]1C=C2c3cccc4[nH]cc(c34)C[C@H]2N(C)C1.O=C(O)/C=C\C(=O)O [ERGONOVINE MALEATE] | Compound NOT metabolized
O=C(NCc1ccccc1)OCCO [BURAMATE] | Compound NOT metabolized
CC(C)(Oc1ccc(CCNC(=O)c2ccc(Cl)cc2)cc1)C(=O)O [BEZAFIBRATE] | Compound NOT metabolized

Experiment: as §1, with “Z-023” for “Z-025”, “to” for “to rabbit gut”, “ERS12561822” for “ERS12561824”
Conditions: 2 µM

Compound | Bacterial Biotransformation
O=C(Nc1ccccc1)OCC(CN1CCCCC1)OC(=O)Nc1ccccc1 (stereo not given) [DIPERODON] | Compound metabolized
C[C@@H](CO)NC(=O)[C@@H]1C=C2c3cccc4[nH]cc(c34)C[C@H]2N(C)C1.O=C(O)/C=C\C(=O)O [ERGONOVINE MALEATE] | Compound NOT metabolized
O=C(NCc1ccccc1)OCCO [BURAMATE] | Compound NOT metabolized
CC(C)(Oc1ccc(CCNC(=O)c2ccc(Cl)cc2)cc1)C(=O)O [BEZAFIBRATE] | Compound metabolized

Experiment: as §1, with “Z-022” for “Z-025”, “mouse” for “rabbit”, “ERS12561821” for “ERS12561824”
Conditions: 2 µM

Compound | Bacterial Biotransformation
O=C(Nc1ccccc1)OCC(CN1CCCCC1)OC(=O)Nc1ccccc1 (stereo not given) [DIPERODON] | Compound NOT metabolized
C[C@@H](CO)NC(=O)[C@@H]1C=C2c3cccc4[nH]cc(c34)C[C@H]2N(C)C1.O=C(O)/C=C\C(=O)O [ERGONOVINE MALEATE] | Compound NOT metabolized
O=C(NCc1ccccc1)OCCO [BURAMATE] | Compound NOT metabolized
CC(C)(Oc1ccc(CCNC(=O)c2ccc(Cl)cc2)cc1)C(=O)O [BEZAFIBRATE] | Compound metabolized

Experiment: as §1, with “Z-021” for “Z-025”, “to” for “to rabbit gut”, “ERS12561820” for “ERS12561824”
Conditions: 2 µM

Compound | Bacterial Biotransformation
O=C(Nc1ccccc1)OCC(CN1CCCCC1)OC(=O)Nc1ccccc1 (stereo not given) [DIPERODON] | Compound NOT metabolized
C[C@@H](CO)NC(=O)[C@@H]1C=C2c3cccc4[nH]cc(c34)C[C@H]2N(C)C1.O=C(O)/C=C\C(=O)O [ERGONOVINE MALEATE] | Compound NOT metabolized
O=C(NCc1ccccc1)OCCO [BURAMATE] | Compound NOT metabolized
CC(C)(Oc1ccc(CCNC(=O)c2ccc(Cl)cc2)cc1)C(=O)O [BEZAFIBRATE] | Compound metabolized

Experiment: as §1, with “Z-011” for “Z-025”, “mouse” for “rabbit”, “ERS12561811” for “ERS12561824”
Conditions: 2 µM

Compound | Bacterial Biotransformation
O=C(Nc1ccccc1)OCC(CN1CCCCC1)OC(=O)Nc1ccccc1 (stereo not given) [DIPERODON] | Compound NOT metabolized
C[C@@H](CO)NC(=O)[C@@H]1C=C2c3cccc4[nH]cc(c34)C[C@H]2N(C)C1.O=C(O)/C=C\C(=O)O [ERGONOVINE MALEATE] | Compound NOT metabolized
O=C(NCc1ccccc1)OCCO [BURAMATE] | Compound NOT metabolized
CC(C)(Oc1ccc(CCNC(=O)c2ccc(Cl)cc2)cc1)C(=O)O [BEZAFIBRATE] | Compound NOT metabolized

Experiment: as §1, with “Z-006” for “Z-025”, “mouse” for “rabbit”, “ERS12561806” for “ERS12561824”
Conditions: 2 µM

Compound | Bacterial Biotransformation
O=C(Nc1ccccc1)OCC(CN1CCCCC1)OC(=O)Nc1ccccc1 (stereo not given) [DIPERODON] | Compound NOT metabolized
C[C@@H](CO)NC(=O)[C@@H]1C=C2c3cccc4[nH]cc(c34)C[C@H]2N(C)C1.O=C(O)/C=C\C(=O)O [ERGONOVINE MALEATE] | Compound NOT metabolized
O=C(NCc1ccccc1)OCCO [BURAMATE] | Compound NOT metabolized
CC(C)(Oc1ccc(CCNC(=O)c2ccc(Cl)cc2)cc1)C(=O)O [BEZAFIBRATE] | Compound NOT metabolized

Experiment: as §1, with “WLS-098” for “Z-025”, “human” for “rabbit”, “ERS12561754” for “ERS12561824”
Conditions: 2 µM

Compound | Bacterial Biotransformation
O=C(Nc1ccccc1)OCC(CN1CCCCC1)OC(=O)Nc1ccccc1 (stereo not given) [DIPERODON] | Compound metabolized
C[C@@H](CO)NC(=O)[C@@H]1C=C2c3cccc4[nH]cc(c34)C[C@H]2N(C)C1.O=C(O)/C=C\C(=O)O [ERGONOVINE MALEATE] | Compound NOT metabolized
O=C(NCc1ccccc1)OCCO [BURAMATE] | Compound NOT metabolized
CC(C)(Oc1ccc(CCNC(=O)c2ccc(Cl)cc2)cc1)C(=O)O [BEZAFIBRATE] | Compound metabolized

Experiment: as §1, with “WLS-052” for “Z-025”, “human” for “rabbit”, “ERS12561747” for “ERS12561824”
Conditions: 2 µM

Compound | Bacterial Biotransformation
O=C(Nc1ccccc1)OCC(CN1CCCCC1)OC(=O)Nc1ccccc1 (stereo not given) [DIPERODON] | Compound NOT metabolized
C[C@@H](CO)NC(=O)[C@@H]1C=C2c3cccc4[nH]cc(c34)C[C@H]2N(C)C1.O=C(O)/C=C\C(=O)O [ERGONOVINE MALEATE] | Compound metabolized
O=C(NCc1ccccc1)OCCO [BURAMATE] | Compound NOT metabolized
CC(C)(Oc1ccc(CCNC(=O)c2ccc(Cl)cc2)cc1)C(=O)O [BEZAFIBRATE] | Compound metabolized

Experiment: as §1, with “WLS-039” for “Z-025”, “human” for “rabbit”, “ERS12561746” for “ERS12561824”
Conditions: 2 µM

Compound | Bacterial Biotransformation
O=C(Nc1ccccc1)OCC(CN1CCCCC1)OC(=O)Nc1ccccc1 (stereo not given) [DIPERODON] | Compound NOT metabolized
C[C@@H](CO)NC(=O)[C@@H]1C=C2c3cccc4[nH]cc(c34)C[C@H]2N(C)C1.O=C(O)/C=C\C(=O)O [ERGONOVINE MALEATE] | Compound metabolized
O=C(NCc1ccccc1)OCCO [BURAMATE] | Compound NOT metabolized
CC(C)(Oc1ccc(CCNC(=O)c2ccc(Cl)cc2)cc1)C(=O)O [BEZAFIBRATE] | Compound metabolized

Experiment: as §1, with “WLS-027” for “Z-025”, “human” for “rabbit”, “ERS12561744” for “ERS12561824”
Conditions: 2 µM

Compound | Bacterial Biotransformation
O=C(Nc1ccccc1)OCC(CN1CCCCC1)OC(=O)Nc1ccccc1 (stereo not given) [DIPERODON] | Compound metabolized
C[C@@H](CO)NC(=O)[C@@H]1C=C2c3cccc4[nH]cc(c34)C[C@H]2N(C)C1.O=C(O)/C=C\C(=O)O [ERGONOVINE MALEATE] | Compound metabolized
O=C(NCc1ccccc1)OCCO [BURAMATE] | Compound NOT metabolized
CC(C)(Oc1ccc(CCNC(=O)c2ccc(Cl)cc2)cc1)C(=O)O [BEZAFIBRATE] | Compound metabolized

Experiment: as §1, with “WLS-010” for “Z-025”, “human” for “rabbit”, “ERS12561743” for “ERS12561824”
Conditions: 2 µM

Compound | Bacterial Biotransformation
O=C(Nc1ccccc1)OCC(CN1CCCCC1)OC(=O)Nc1ccccc1 (stereo not given) [DIPERODON] | Compound metabolized
C[C@@H](CO)NC(=O)[C@@H]1C=C2c3cccc4[nH]cc(c34)C[C@H]2N(C)C1.O=C(O)/C=C\C(=O)O [ERGONOVINE MALEATE] | Compound metabolized
O=C(NCc1ccccc1)OCCO [BURAMATE] | Compound NOT metabolized
CC(C)(Oc1ccc(CCNC(=O)c2ccc(Cl)cc2)cc1)C(=O)O [BEZAFIBRATE] | Compound metabolized

Conditions: human gut metagenome, 24 h, 2 µM

Compound | Bacterial Biotransformation
O=C(Nc1ccccc1)OCC(CN1CCCCC1)OC(=O)Nc1ccccc1 (stereo not given) [DIPERODON] | Compound NOT metabolized
C[C@@H](CO)NC(=O)[C@@H]1C=C2c3cccc4[nH]cc(c34)C[C@H]2N(C)C1.O=C(O)/C=C\C(=O)O [ERGONOVINE MALEATE] | Compound metabolized
O=C(NCc1ccccc1)OCCO [BURAMATE] | Compound NOT metabolized
CC(C)(Oc1ccc(CCNC(=O)c2ccc(Cl)cc2)cc1)C(=O)O [BEZAFIBRATE] | Compound metabolized

Conditions: human gut metagenome, 24 h, 2 µM
Remark: another data set of the same source

Compound | Bacterial Biotransformation
O=C(Nc1ccccc1)OCC(CN1CCCCC1)OC(=O)Nc1ccccc1 (stereo not given) [DIPERODON] | Compound NOT metabolized
C[C@@H](CO)NC(=O)[C@@H]1C=C2c3cccc4[nH]cc(c34)C[C@H]2N(C)C1.O=C(O)/C=C\C(=O)O [ERGONOVINE MALEATE] | Compound NOT metabolized
O=C(NCc1ccccc1)OCCO [BURAMATE] | Compound NOT metabolized
CC(C)(Oc1ccc(CCNC(=O)c2ccc(Cl)cc2)cc1)C(=O)O [BEZAFIBRATE] | Compound metabolized

Conditions: human gut metagenome, 24 h, 2 µM
Remark: another data set of the same source

Compound | Bacterial Biotransformation
O=C(Nc1ccccc1)OCC(CN1CCCCC1)OC(=O)Nc1ccccc1 (stereo not given) [DIPERODON] | Compound NOT metabolized
C[C@@H](CO)NC(=O)[C@@H]1C=C2c3cccc4[nH]cc(c34)C[C@H]2N(C)C1.O=C(O)/C=C\C(=O)O [ERGONOVINE MALEATE] | Compound metabolized
O=C(NCc1ccccc1)OCCO [BURAMATE] | Compound NOT metabolized
CC(C)(Oc1ccc(CCNC(=O)c2ccc(Cl)cc2)cc1)C(=O)O [BEZAFIBRATE] | Compound NOT metabolized

Conditions: human gut metagenome, 24 h, 2 µM
Remark: another data set of the same source

Compound | Bacterial Biotransformation
O=C(Nc1ccccc1)OCC(CN1CCCCC1)OC(=O)Nc1ccccc1 (stereo not given) [DIPERODON] | Compound NOT metabolized
C[C@@H](CO)NC(=O)[C@@H]1C=C2c3cccc4[nH]cc(c34)C[C@H]2N(C)C1.O=C(O)/C=C\C(=O)O [ERGONOVINE MALEATE] | Compound metabolized
O=C(NCc1ccccc1)OCCO [BURAMATE] | Compound NOT metabolized
CC(C)(Oc1ccc(CCNC(=O)c2ccc(Cl)cc2)cc1)C(=O)O [BEZAFIBRATE] | Compound metabolized

Conditions: human gut metagenome, 24 h, 2 µM
Remark: another data set of the same source

Compound | Bacterial Biotransformation
O=C(Nc1ccccc1)OCC(CN1CCCCC1)OC(=O)Nc1ccccc1 (stereo not given) [DIPERODON] | Compound metabolized
C[C@@H](CO)NC(=O)[C@@H]1C=C2c3cccc4[nH]cc(c34)C[C@H]2N(C)C1.O=C(O)/C=C\C(=O)O [ERGONOVINE MALEATE] | Compound metabolized
O=C(NCc1ccccc1)OCCO [BURAMATE] | Compound NOT metabolized
CC(C)(Oc1ccc(CCNC(=O)c2ccc(Cl)cc2)cc1)C(=O)O [BEZAFIBRATE] | Compound metabolized

Conditions: human gut metagenome, 24 h, 2 µM
Remark: another data set of the same source

Compound | Bacterial Biotransformation
O=C(Nc1ccccc1)OCC(CN1CCCCC1)OC(=O)Nc1ccccc1 (stereo not given) [DIPERODON] | Compound metabolized
C[C@@H](CO)NC(=O)[C@@H]1C=C2c3cccc4[nH]cc(c34)C[C@H]2N(C)C1.O=C(O)/C=C\C(=O)O [ERGONOVINE MALEATE] | Compound NOT metabolized
O=C(NCc1ccccc1)OCCO [BURAMATE] | Compound NOT metabolized
CC(C)(Oc1ccc(CCNC(=O)c2ccc(Cl)cc2)cc1)C(=O)O [BEZAFIBRATE] | Compound metabolized

Conditions: human gut metagenome, 24 h, 2 µM
Remark: another data set of the same source

Compound | Bacterial Biotransformation
O=C(Nc1ccccc1)OCC(CN1CCCCC1)OC(=O)Nc1ccccc1 (stereo not given) [DIPERODON] | Compound NOT metabolized
C[C@@H](CO)NC(=O)[C@@H]1C=C2c3cccc4[nH]cc(c34)C[C@H]2N(C)C1.O=C(O)/C=C\C(=O)O [ERGONOVINE MALEATE] | Compound NOT metabolized
O=C(NCc1ccccc1)OCCO [BURAMATE] | Compound NOT metabolized
CC(C)(Oc1ccc(CCNC(=O)c2ccc(Cl)cc2)cc1)C(=O)O [BEZAFIBRATE] | Compound NOT metabolized

Conditions: human gut metagenome, 24 h, 2 µM
Remark: another data set of the same source

Compound | Bacterial Biotransformation
O=C(Nc1ccccc1)OCC(CN1CCCCC1)OC(=O)Nc1ccccc1 (stereo not given) [DIPERODON] | Compound NOT metabolized
C[C@@H](CO)NC(=O)[C@@H]1C=C2c3cccc4[nH]cc(c34)C[C@H]2N(C)C1.O=C(O)/C=C\C(=O)O [ERGONOVINE MALEATE] | Compound NOT metabolized
O=C(NCc1ccccc1)OCCO [BURAMATE] | Compound NOT metabolized
CC(C)(Oc1ccc(CCNC(=O)c2ccc(Cl)cc2)cc1)C(=O)O [BEZAFIBRATE] | Compound NOT metabolized

Conditions: human gut metagenome, 24 h, 2 µM
Remark: another data set of the same source

Compound | Bacterial Biotransformation
O=C(Nc1ccccc1)OCC(CN1CCCCC1)OC(=O)Nc1ccccc1 (stereo not given) [DIPERODON] | Compound metabolized
C[C@@H](CO)NC(=O)[C@@H]1C=C2c3cccc4[nH]cc(c34)C[C@H]2N(C)C1.O=C(O)/C=C\C(=O)O [ERGONOVINE MALEATE] | Compound metabolized
O=C(NCc1ccccc1)OCCO [BURAMATE] | Compound NOT metabolized
CC(C)(Oc1ccc(CCNC(=O)c2ccc(Cl)cc2)cc1)C(=O)O [BEZAFIBRATE] | Compound metabolized
